Test results as given in PMC9898996 (Bioorganic & medicinal chemistry, 2022).

Experiments:
α-syn = α-syn (Homo sapiens, UniProt P37840); assay: ThT assay of α-syn aggregation induced by seeding with 0.5% PFFs; format: biochemical; conditions: 1.25 mg/mL α-syn + 0.5% PFFs, 30D without shaking, drug 172.9 μM
PC12 cells = assay: MTT viability of PC12 cells treated with α-syn seeded samples; format: cell-based; conditions: samples collected at 0D; drug 20 μM, 24 h
rat D2L receptor = rat D2L receptor (Rattus norvegicus, UniProt P61169); format: binding
human D2 receptor [1] = target: T1, human D2 receptor (Homo sapiens, UniProt P14416); conditions: [35S]GTPγS, D2 receptors
human D2 receptor [2] = target: T1, human D2 receptor

Sequence of rat D2L receptor (P61169 whole entry): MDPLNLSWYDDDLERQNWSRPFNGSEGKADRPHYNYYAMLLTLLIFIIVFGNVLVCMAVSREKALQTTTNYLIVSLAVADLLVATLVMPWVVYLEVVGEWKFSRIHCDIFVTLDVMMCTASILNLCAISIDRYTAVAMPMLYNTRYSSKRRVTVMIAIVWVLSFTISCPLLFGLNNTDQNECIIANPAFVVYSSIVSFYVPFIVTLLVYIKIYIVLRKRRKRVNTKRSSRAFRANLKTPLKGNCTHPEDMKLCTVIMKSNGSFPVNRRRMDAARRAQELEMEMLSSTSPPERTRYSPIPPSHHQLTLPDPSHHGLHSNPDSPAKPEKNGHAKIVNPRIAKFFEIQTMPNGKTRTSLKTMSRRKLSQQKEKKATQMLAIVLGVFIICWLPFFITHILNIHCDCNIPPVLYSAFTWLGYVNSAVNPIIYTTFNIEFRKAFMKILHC
T1 sequence (P14416 whole entry): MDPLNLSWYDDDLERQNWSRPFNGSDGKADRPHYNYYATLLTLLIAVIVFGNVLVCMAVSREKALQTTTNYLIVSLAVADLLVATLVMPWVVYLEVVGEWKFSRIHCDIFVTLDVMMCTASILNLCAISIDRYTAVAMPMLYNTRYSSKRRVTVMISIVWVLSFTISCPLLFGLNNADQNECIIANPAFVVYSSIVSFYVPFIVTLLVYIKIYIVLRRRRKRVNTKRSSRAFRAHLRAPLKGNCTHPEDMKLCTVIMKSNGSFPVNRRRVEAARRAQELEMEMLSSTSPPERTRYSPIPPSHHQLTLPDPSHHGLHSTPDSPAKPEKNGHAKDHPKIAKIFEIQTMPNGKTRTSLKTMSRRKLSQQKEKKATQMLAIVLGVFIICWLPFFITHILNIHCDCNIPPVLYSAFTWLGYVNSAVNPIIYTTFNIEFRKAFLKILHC

Compound: Br.Br.CCCN(CCc1cc(O)c(CCN(CCC)[C@H]2CCc3c(O)cccc3C2)cc1O)[C@H]1CCc2c(O)cccc2C1 [Compound D-666, 2,5-Bis(2-(((S)-5-hydroxy-1,2,3,4-tetrahydronaphthalen-2-yl)(propyl)amino)ethyl)benzene-1,4-diol]
- Inhibition of α-syn aggregation (ThT signal) (α-syn): inhibited the aggregation completely
- Toxicity of compound by itself (PC12 viability, MTT) (PC12 cells): do not see such toxicity

Compound: CCCN(CC(=O)N1CCN(C(=O)CN(CCC)[C@H]2CCc3c(O)cccc3C2)CC1)[C@H]1CCc2c(O)cccc2C1 [Compound D-380, (s)-1,1’-(piperazine-1,4-diyl)bis(2-(((s)-5-hydroxy-1,2,3,4-tetrahydronaphthalen-2-yl)(propyl)amino)ethanone)]
- Activity at DA receptors (binding, in words) (rat D2L receptor; D2/D3 receptor binding): little to no activity
- Inhibition of [3H]spiroperidol binding, D2L (rat D2L receptor; at 100 μM, cloned rat D2L in HEK-293 cells): No Inhibition at 100 μM

Compound: CCCN(CCc1cc(O)c(CCN(CCC)[C@H]2CCc3nc(N)sc3C2)cc1O)[C@H]1CCc2nc(N)sc2C1 [Compound D-673, 2,5-bis(2-(((S)-2-amino-4,5,6,7-tetrahydrobenzo[d]thiazol-6-yl)(propyl)amino)-ethyl)benzene-1,4-diol]
- Inhibition of α-syn aggregation (ThT signal) (α-syn): inhibited the aggregation completely
- Toxicity of compound by itself (PC12 viability, MTT) (PC12 cells): shows toxicity
- D2 functional potency compared to pramipexole (human D2 receptor [1]): more than 7 fold

Compound: CCCN(CCC)C1CCc2c(O)cccc2C1 (single isomer, unassigned; (-)) [(−)-5-OH-DPAT, 5-OH-DPAT]
- Emax (human D2 receptor [2]): 80 ± 4%

Compound: CCCN(CCc1ccc(CCN(CCC)[C@H]2CCc3c(O)cccc3C2)cc1)[C@H]1CCc2c(O)cccc2C1 [Compound D-382, (6s,6’s)-6,6’-(2,2’-(1,4-phenylene)bis(ethane-2,1-diyl))bis(propylazanediyl)bis(5,6,7,8-tetrahydronaphthalen-1-ol)]
- Increase in affinity for D2 receptors compared to D-381 (rat D2L receptor; binding, D2 receptors): greater than threefold increase
